In patent publication US10544140B2, “Pharmaceutical composition containing, as active ingredient, 7-azaindolin-2-one derivative or pharmaceutically acceptable salt thereof” (LG CHEM, LTD., priority 2015, dated 2020):
Like-named read-outs stand apart in the source and are kept apart here.

Legend:
[1] = test system: MCF-7 (human breast cancer cell line); experiment: Cytotoxicity test by MTT assay, MCF-7; type: cell-based; settings: Homo sapiens, read-out: Cell viability (% inhibition)
Method: (§1) A cytotoxicity test was measured by MTT assay. Each cell line was cultured in a 96-well plate at a density of 1×10^4 cells/well. […] MTT (3-(4,5-dimethylthiazol-2-yl)-2,5-diphenyltetrazolium bromide) solution (5 mg/mL) was added to each well and reacted for 4 hours in an incubator. […] After reacting in an incubator for 30 minutes, the formation of formazan was quantified using a microplate reader at an absorbance of 540 nm. […] At this time, sunitinib was used as a control group. […] The human cancer cell lines used herein are MCF-7 (breast cancer), MDA-MB-231 (breast cancer), HT-29 (colon cancer), DU145 (prostate cancer), U937 (myeloid leukemia), A549 (lung cancer), PANC-1 (pancreatic cancer) and MIA PaCa-2 (pancreatic cancer).

[2] = test system: PANC-1 (human pancreatic cancer cell line); experiment: Cytotoxicity test by MTT assay, PANC-1; type: cell-based; settings: Homo sapiens, read-out: Cell viability (% inhibition)
Method: as §1

[3] = test system: MDA-MB-231 (breast cancer); experiment: Cytotoxicity test by MTT assay, MDA-MB-231; type: cell-based, human
Method: (§2) A cytotoxicity test was measured by MTT assay. Each cell line was cultured in a 96-well plate at a density of 1×10^4 cells/well. After 24 hours, the culture medium containing 1% FBS (fetal bovine serum) was treated and reacted with compounds or solutions of compounds for 48 hours. MTT (3-(4,5-dimethylthiazol-2-yl)-2,5-diphenyltetrazolium bromide) solution (5 mg/mL) was added to each well and reacted for 4 hours in an incubator. […] After reacting in an incubator for 30 minutes, the formation of formazan was quantified using a microplate reader at an absorbance of 540 nm. […] The human cancer cell lines used herein are MCF-7 (breast cancer), MDA-MB-231 (breast cancer), HT-29 (colon cancer), DU145 (prostate cancer), U937 (myeloid leukemia), A549 (lung cancer), PANC-1 (pancreatic cancer) and MIA PaCa-2 (pancreatic cancer).

[4] = test system: HT-29 (colon cancer); experiment: Cytotoxicity test by MTT assay, HT-29; type: cell-based, human
Method: as §2

[5] = test system: DU145 (prostate cancer); experiment: Cytotoxicity test by MTT assay, DU145; type: cell-based, human; settings: DU-145
Method: as §2

[6] = test system: U937 (myeloid leukemia); experiment: Cytotoxicity test by MTT assay, U937; type: cell-based, human
Method: as §2

[7] = test system: A549 (lung cancer); experiment: Cytotoxicity test by MTT assay, A549; type: cell-based, human
Method: as §2

[8] = Cytotoxicity test by MTT assay, HEK293 normal cell line; type: cell-based; settings: human, HEK293 cells (normal cell line)
Method: A cytotoxicity test was measured by MTT assay. Each cell line was cultured in a 96-well plate at a density of 1×10^4 cells/well. After 24 hours, the culture medium containing 1% FBS (fetal bovine serum) was treated and reacted with compounds or solutions of compounds for 48 hours. MTT (3-(4,5-dimethylthiazol-2-yl)-2,5-diphenyltetrazolium bromide) solution (5 mg/mL) was added to each well and reacted for 4 hours in an incubator. […] After reacting in an incubator for 30 minutes, the formation of formazan was quantified using a microplate reader at an absorbance of 540 nm.

SMILES	cytotoxicity at 30 µM ([1]; MCF7, MCF-7, 30 μM, 48 h) [%]	cytotoxicity at 30 µM ([2]; PANC-1, 30 μM, 48 h) [%]	further results
COc1cc(/C=C2\C(=O)Nc3nc(C)c(O)c(C)c32)cc(OC)c1OC [Compound I-16, (Z)-5-Hydroxy-4,6-dimethyl-3-(3,4,5-trimethoxybenzylidene)-1H-pyrrolo[2,3-b]pyridin-2(3H)-one]	41.2	40.6	
Cc1nc2c(c(C)c1O)/C(=C/c1nccs1)C(=O)N2 [Compound I-35, (Z)-5-Hydroxy-4,6-dimethyl-3-(thiazol-2-ylmethylene)-1H-pyrrolo[2,3-b]pyridin-2(3H)-one]	5.6	9	
Cc1ccsc1/C=C1\C(=O)Nc2nc(C)c(O)c(C)c21 [Compound I-30, (Z)-5-Hydroxy-4,6-dimethyl-3-((3-methylthiophen-2-yl)methylene)-1H-pyrrolo[2,3-b]pyridin-2(3H)-one]	59	47.2	
Cc1nc2c(c(C)c1O)/C(=C/c1ccc(F)cc1)C(=O)N2 [Compound I-09, (Z)-3-(4-Fluorobenzylidene)-5-hydroxy-4,6-dimethyl-1H-pyrrolo[2,3-b]pyridin-2(3H)-one]	48.3	51.8	
Cc1ccc(/C=C2\C(=O)Nc3nc(C)c(O)c(C)c32)cc1 [Compound I-06, (Z)-5-Hydroxy-4,6-dimethyl-3-(4-methylbenzylidene)-1H-pyrrolo[2,3-b]pyridin-2(3H)-one]	32.3	29.1	
Cc1nc2c(c(C)c1O)/C(=C/c1c[nH]c3ccccc13)C(=O)N2 [Compound I-26, (Z)-3-((1H-Indol-3-yl)methylene)-5-hydroxy-4,6-dimethyl-1H-pyrrolo[2,3-b]pyridin-2(3H)-one]	2.4	17.1	
COc1ccc(/C=C2\C(=O)Nc3nc(C)c(O)c(C)c32)cc1 [Compound I-14, (Z)-5-Hydroxy-3-(4-methoxybenzylidene)-4,6-dimethyl-1H-pyrrolo[2,3-b]pyridin-2(3H)-one]	23.9	36.3	
COc1cccc(/C=C2\C(=O)Nc3nc(C)c(O)c(C)c32)c1 [Compound I-13, (Z)-5-Hydroxy-3-(3-methoxybenzylidene)-4,6-dimethyl-1H-pyrrolo[2,3-b]pyridin-2(3H)-one]	29.6	46.4	
Cc1nc2c(c(C)c1O)/C(=C/c1ncc[nH]1)C(=O)N2 [Compound I-33, (Z)-3-((1H-Imidazol-2-yl)methylene)-5-hydroxy-4,6-dimethyl-1H-pyrrolo[2,3-b]pyridin-2(3H)-one]	2.6	7.2	
Cc1nc2c(c(C)c1O)/C(=C/c1cccs1)C(=O)N2 [Compound I-29, (Z)-5-Hydroxy-4,6-dimethyl-3-(thiophen-2-ylmethylene)-1H-pyrrolo[2,3-b]pyridin-2(3H)-one]	57.8	42.2	
Cc1nc2c(c(C)c1O)/C(=C/c1ccc(Cl)cc1)C(=O)N2 [Compound I-10, (Z)-3-(4-Chlorobenzylidene)-5-hydroxy-4,6-dimethyl-1H-pyrrolo[2,3-b]pyridin-2(3H)-one]	51.7	44.9	
CCC(/C=C1\C(=O)Nc2nc(C)c(O)c(C)c21)CC [Compound I-02, (Z)-3-(2-Ethylbutylidene)-5-hydroxy-4,6-dimethyl-1H-pyrrolo[2,3-b]pyridin-2(3H)-one]	30.5	44.9	
Cc1nc2c(c(C)c1O)/C(=C/c1ccccc1O)C(=O)N2 [Compound I-11, (Z)-5-Hydroxy-3-(2-hydroxybenzylidene)-4,6-dimethyl-1H-pyrrolo[2,3-b]pyridin-2(3H)-one]	29.2	42	
Cc1nc2c(c(C)c1O)/C(=C/c1ccco1)C(=O)N2 [Compound I-27, (Z)-3-(Furan-2-ylmethylene)-5-hydroxy-4,6-dimethyl-1H-pyrrolo[2,3-b]pyridin-2(3H)-one]	31.5	16.4	
Cc1nc2c(c(C)c1O)/C(=C/c1c[nH]cn1)C(=O)N2 [Compound I-34, (Z)-3-((1H-Imidazol-4-yl)methylene)-5-hydroxy-4,6-dimethyl-1H-pyrrolo[2,3-b]pyridin-2(3H)-one]			cytotoxicity at 30 µM ([1]; MCF7, 48 h): 4.1%; cytotoxicity at 30 µM ([2]; PANC-1, 48 h): 4.5%
Cc1nc2c(c(C)c1O)/C(=C/c1ccc3ccccc3n1)C(=O)N2 [Compound I-24, (Z)-5-Hydroxy-4,6-dimethyl-3-(quinolin-2-ylmethylene)-1H-pyrrolo[2,3-b]pyridin-2(3H)-one]			cytotoxicity compared with the reference drug sunitinib [3]: greater than or equal to that of the reference drug sunitinib; IC50 ([3]; Homo sapiens, MBA-MB-231, 48 h): 2.81 µM; cytotoxicity compared with the reference drug sunitinib ([4]; HT-29): greater than or equal to that of the reference drug sunitinib; IC50 ([4]; Homo sapiens, HT-29, 48 h): 4.57 µM; cytotoxicity compared with the reference drug sunitinib [5]: greater than or equal to that of the reference drug sunitinib; IC50 ([5]; Homo sapiens, DU145, 48 h): 1.07 µM; IC50 ([6]; Homo sapiens, U-937, U937, 48 h): 6.67 µM; cytotoxicity compared with the reference drug sunitinib ([6]; U937): greater than or equal to that of the reference drug sunitinib; cytotoxicity compared with the reference drug sunitinib ([7]; A-549): greater than or equal to that of the reference drug sunitinib; IC50 ([7]; Homo sapiens, A549, 48 h): 4.2 µM; IC50 at 48 h [8]: 46.8 µM
Cc1nc2c(c(C)c1O)/C(=C/c1cccc3[nH]ccc13)C(=O)N2 [Compound I-25, (Z)-3-((1H-Indol-4-yl)methylene)-5-hydroxy-4,6-dimethyl-1H-pyrrolo[2,3-b]pyridin-2(3H)-one]	14.5	32.3	
Cc1nc2c(c(C)c1O)/C(=C/c1ccccn1)C(=O)N2 [Compound I-21, (Z)-5-Hydroxy-4,6-dimethyl-3-(pyridin-2-ylmethylene)-1H-pyrrolo[2,3-b]pyridin-2(3H)-one]	28.1	29.2	
Cc1nc2c(c(C)c1O)/C(=C/c1ccc([N+](=O)[O-])cc1)C(=O)N2 [Compound I-08, (Z)-5-Hydroxy-4,6-dimethyl-3-(4-nitrobenzylidene)-1H-pyrrolo[2,3-b]pyridin-2(3H)-one]	16.3	32.5	
Cc1nc2c(c(C)c1O)/C(=C/c1ccc3ccccc3c1)C(=O)N2 [Compound I-20, (Z)-5-Hydroxy-4,6-dimethyl-3-(naphthalen-2-ylmethylene)-1H-pyrrolo[2,3-b]pyridin-2(3H)-one]	30.5	28.9	
CC(C)=C/C=C1\C(=O)Nc2nc(C)c(O)c(C)c21 [Compound I-03, (Z)-5-Hydroxy-4,6-dimethyl-3-(3-methylbut-2-enylidene)-1H-pyrrolo[2,3-b]pyridin-2(3H)-one]	6.6	37.5	
COc1cc(/C=C/C=C2\C(=O)Nc3nc(C)c(O)c(C)c32)ccc1O [Compound I-04, (Z)-5-Hydroxy-3-((E)-3-(4-hydroxy-3-methoxyphenyl)allylidene)-4,6-dimethyl-1H-pyrrolo[2,3-b]pyridin-2(3H)-one]	6.9	24.4	
Cc1nc2c(c(C)c1O)/C(=C/c1ccccc1[N+](=O)[O-])C(=O)N2 [Compound I-07, (Z)-5-Hydroxy-4,6-dimethyl-3-(2-nitrobenzylidene)-1H-pyrrolo[2,3-b]pyridin-2(3H)-one]	23.9	27.8	
Cc1nc2c(c(C)c1O)/C(=C/C1CCCCC1)C(=O)N2 [Compound I-05, (Z)-3-(Cyclohexylmethylene)-5-hydroxy-4,6-dimethyl-1H-pyrrolo[2,3-b]pyridin-2(3H)-one]	10	49	
COc1ccccc1/C=C1\C(=O)Nc2nc(C)c(O)c(C)c21 [Compound I-12, (Z)-5-hydroxy-3-(2-methoxybenzylidene)-4,6-dimethyl-1H-pyrrolo[2,3-b]pyridin-2(3H)-one]	30.7	10.2	
